Laboratory results reported in US8288410B2, “3-substituted quinolinium and 7H-indolo[2,3-c]quinolinium salts as new antiinfectives” (Florida Agricultural and Mechanical University, priority 2008, dated 2012).

Experiments:
[1] = system: Aspergillus fumigatus ATCC 90906; test: Antifungal susceptibility testing, Aspergillus fumigatus; format: cell-based; settings: Aspergillus fumigatus
Experimental: (§1) Using standard susceptibility tests, the compounds of the invention were determined to be active against MRSA, C. neoformans and several other bacteria, fungi and protozoa. More specifically, the antibacterial and antifungal testing was carried out in the following manner. Cryptococcus neoformans ATCC 90113 and MRSA were obtained from the American Type Culture Collection (Manassas. Va.). Several others including Candida albicans ATTC 90028, Aspergillus fumigatus ATCC 90906 and Mycobacterium intracellulare (M. intracellulare) ATCC 23086 were also procured. Susceptibility testing was performed using a modified version of the National Committee for Clinical Laboratory Standards method. M. intracellulare was tested using a modified method of Franzblau, et al., J. Clin. Microbiol., 1998, 36, 362-366. DMSO solutions of samples were serially diluted in saline, and transferred in duplicate to 96 well microplates. Microbial suspensions were diluted in the broth to afford desired colony forming units/mL according to the 0.5 McFarland Standard [C. Albicans: either Saboraud Dextrose broth (SDB) or RPMI 1640, C. neoformans: SDB, A fumigatus: either YM broth (for MICS) or RPMI-1640+5% Alamar Blue.] After adding microbial cultures to the sampled afforded a final volume of 200 μL and final test concentration starting with 20 μg/mL, plates were read prior to and after final incubation using either fluorescence at 544ex/590em (M intracellulare, A. fumigatus) using the Polarstar galaxy reader (Biotek Instruments, Vermont). Growth (saline only), solvent and blank (media only) controls were included on each test plate. Drug controls [Ciprofloxacin (ICN Biomedicals, Ohio) for bacteria and Amphotericin B (ICN Biomedicals, Ohio) for fungi] were included in each assay. Percent growth was calculated and plotted versus test concentration to afford IC50 (sample concentration that affords 50% inhibition or growth of the organism). The minimum inhibitory concentration (MIC) was determined by visually inspecting the plate, and is defined as the lowest test concentration that allows no detectable growth (for Almar Blue assays, no color change from blue to pink).

[2] = system: MRSA; test: Antibacterial susceptibility testing, MRSA; format: cell-based, methicillin resistant Staphylococcus aureus; settings: for MRS IC50 / MRS MFC / MRS MIC: Table 1
Experimental: as §1

[3] = system: Candida albicans ATTC 90028; test: Antifungal susceptibility testing, Candida albicans; format: cell-based
Experimental: as §1

[4] = system: Cryptococcus neoformans ATCC 90113; test: Antifungal susceptibility testing, Cryptococcus neoformans; format: cell-based
Experimental: as §1

Row | Compound | A fu MFC ([1]; Table 1) | MRS IC50 [2] | MRS MFC [2] | MRS MIC [2] | Ca IC50 ([3]; Table 1) | Ca MFC ([3]; Table 1) | Ca MIC ([3]; Table 1) | Cn IC50 ([4]; Table 1) | Cn MFC ([4]; Table 1) | Cn MIC ([4]; Table 1) | A fu IC50 ([1]; Table 1) | A fu MIC ([1]; Table 1) | other results
1 | Fc1ccc(Sc2cc3ccccc3[n+](CCCCCc3ccccc3)c2)cc1.[I-] [XYZ-III-63] | — ((-) = >20 μg/mL) | 5.5 µg/mL | — ((-) = >20 μg/mL) | 10 µg/mL | 20 µg/mL | — ((-) = >20 μg/mL) | — ((-) = >20 μg/mL) | 7.0 µg/mL | — ((-) = >20 μg/mL) | — ((-) = >20 μg/mL) | – | – | –
2 | [I-].[O-][S+](c1cccc(Br)c1)c1cc2ccccc2[n+](CCCCCc2ccccc2)c1 (centres unmarked) [XYZ-V-29] | — ((-) = >20 μg/mL) | 0.90 µg/mL | — ((-) = >20 μg/mL) | 2.5 µg/mL | — ((-) = >20 μg/mL) | — ((-) = >20 μg/mL) | — ((-) = >20 μg/mL) | 5.5 µg/mL | 20 µg/mL | 10 µg/mL | — ((-) = >20 μg/mL) | — ((-) = >20 μg/mL) | –
3 | FC(F)(F)c1ccccc1Sc1cc2ccccc2[n+](CCCCCc2ccccc2)c1.[I-] [XYZ-IV-25] | 10 µg/mL | 0.05 µg/mL | 2.5 µg/mL | 0.16 µg/mL | 0.4 µg/mL | 2.5 µg/mL | 1.3 µg/mL | 0.06 µg/mL | 0.63 µg/mL | 0.16 µg/mL | 0.03 µg/mL | 0.08 µg/mL | –
4 | [I-].[O-][S+](c1ccc(C(F)(F)F)cc1)c1cc2ccccc2[n+](CCCCCc2ccccc2)c1 (centres unmarked) [XYZ-V-27] | — ((-) = >20 μg/mL) | 0.50 µg/mL | — ((-) = >20 μg/mL) | 1.3 µg/mL | — ((-) = >20 μg/mL) | — ((-) = >20 μg/mL) | — ((-) = >20 μg/mL) | 6.0 µg/mL | 20 µg/mL | 10 µg/mL | — ((-) = >20 μg/mL) | — ((-) = >20 μg/mL) | –
5 | C[n+]1cc(Sc2ccccc2)cc2ccccc21.[I-] [XYZ-III-53] | — ((-) = >20 μg/mL) | — ((-) = >20 μg/mL) | — ((-) = >20 μg/mL) | — ((-) = >20 μg/mL) | — ((-) = >20 μg/mL) | — ((-) = >20 μg/mL) | — ((-) = >20 μg/mL) | — ((-) = >20 μg/mL) | — ((-) = >20 μg/mL) | — ((-) = >20 μg/mL) | — ((-) = >20 μg/mL) | — ((-) = >20 μg/mL) | –
6 | [I-].[O-][S+](c1ccc(Br)cc1)c1cc2ccccc2[n+](CCCCCc2ccccc2)c1 (centres unmarked) [XYZ-V-20] | — ((-) = >20 μg/mL) | 0.50 µg/mL | — ((-) = >20 μg/mL) | 2.5 µg/mL | — ((-) = >20 μg/mL) | — ((-) = >20 μg/mL) | — ((-) = >20 μg/mL) | 7.0 µg/mL | — ((-) = >20 μg/mL) | 10 µg/mL | — ((-) = >20 μg/mL) | — ((-) = >20 μg/mL) | –
7 | Fc1cccc(Sc2cc3ccccc3[n+](CCCCCc3ccccc3)c2)c1.[I-] [XYZ-IV-21] | — ((-) = >20 μg/mL) | 0.20 µg/mL | 20 µg/mL | 0.63 µg/mL | 3.0 µg/mL | 20 µg/mL | 10 µg/mL | 0.40 µg/mL | 2.5 µg/mL | 0.63 µg/mL | 0.10 µg/mL | 0.16 µg/mL | –
8 | C[n+]1cc(Nc2cccc(Cl)c2)cc2ccccc21.[I-] [JRE-2-81-1] | – | – | – | – | – | – | – | – | – | – | – | – | A fu IC50 ([1]; Table 2): — ((-) = >20 μg/mL); MRSA IC50 ([2]; Table 2): — ((-) = >20 μg/mL); MRSA MFC ([2]; Table 2): — ((-) = >20 μg/mL); MRSA MIC ([2]; Table 2): — ((-) = >20 μg/mL); Ca IC50 ([3]; Table 2): — ((-) = >20 μg/mL); Ca MFC ([3]; Table 2): — ((-) = >20 μg/mL); Ca MIC ([3]; Table 2): — ((-) = >20 μg/mL); Cn IC50 ([4]; Table 2): — ((-) = >20 μg/mL); Cn MFC ([4]; Table 2): — ((-) = >20 μg/mL); Cn MIC ([4]; Table 2): — ((-) = >20 μg/mL)
